“And” between values parts separate entries of the source, which are not always exact repeats. Identical values can stand only once. Like-named read-outs stand apart in the source and are kept apart here.
How the values were obtained:
E. coli = experiment: Checkerboard assay LEI-800 with CIP; assay type: cell-based, Escherichia coli;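 further: bacterial growth read as OD600 after 20 h at 37 °C with shaking, each drug pair tested in triplicate wells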
E. coli DNA gyrase = biological target: T1, E. coli DNA gyrase (Escherichia coli, UniProt P0AES4); experiment: Gyrase supercoiling inhibition, gel-based; assay type: biochemical
T1 construct: purchased Inspiralis Limited
T1 sequence (P0AES4 whole entry): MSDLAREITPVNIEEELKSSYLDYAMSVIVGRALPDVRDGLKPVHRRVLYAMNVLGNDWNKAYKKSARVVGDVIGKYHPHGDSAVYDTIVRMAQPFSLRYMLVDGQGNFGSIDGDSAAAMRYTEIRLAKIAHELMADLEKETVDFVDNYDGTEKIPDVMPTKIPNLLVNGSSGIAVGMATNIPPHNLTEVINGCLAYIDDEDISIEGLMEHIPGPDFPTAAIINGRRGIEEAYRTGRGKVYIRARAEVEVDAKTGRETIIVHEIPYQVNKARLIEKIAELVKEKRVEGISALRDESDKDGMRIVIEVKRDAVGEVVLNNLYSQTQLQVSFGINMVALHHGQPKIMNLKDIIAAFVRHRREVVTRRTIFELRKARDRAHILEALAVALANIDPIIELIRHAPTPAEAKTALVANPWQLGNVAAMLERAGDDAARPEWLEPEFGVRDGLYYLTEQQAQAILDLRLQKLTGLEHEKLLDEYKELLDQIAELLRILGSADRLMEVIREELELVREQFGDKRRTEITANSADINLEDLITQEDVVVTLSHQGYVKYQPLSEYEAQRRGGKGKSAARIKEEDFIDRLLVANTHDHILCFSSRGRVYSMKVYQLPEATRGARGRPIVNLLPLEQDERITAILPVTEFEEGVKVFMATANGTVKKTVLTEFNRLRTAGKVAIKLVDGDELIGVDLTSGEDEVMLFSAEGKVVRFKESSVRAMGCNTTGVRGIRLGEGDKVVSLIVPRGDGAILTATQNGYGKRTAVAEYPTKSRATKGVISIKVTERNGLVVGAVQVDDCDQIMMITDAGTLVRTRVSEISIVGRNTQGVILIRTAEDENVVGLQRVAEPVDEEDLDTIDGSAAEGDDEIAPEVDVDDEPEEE
Procedure: Of this stock solution, 27 µl was aliquoted for each reaction in 1.5 ml Eppendorf tubes and supplemented with 0.6 µl of the appropriate compound dilution or corresponding solvent with a final DMSO concentration of 2%. The reactions were started with 3 µl of enzyme (1 U for WT gyrase retrieved from Inspiralis Limited or 25–30 nM gyrase variants purified in house) in dilution buffer (50 mM Tris–HCl (pH 7.5), 100 mM KCl, 2 mM DTT, 1 mM EDTA and 50% (wt/vol) glycerol) for a final volume of 30 µl. Reactions were run at 37 °C for 30 min and stopped with the addition of 30 µl STEB buffer (40% (wt/vol) sucrose, 100 mM Tris–HCl pH 8, 100 mM EDTA, 0.5 mg ml^−1 bromophenol blue) and 30 µl of a chloroform:isoamyl alcohol solution (24:1 vol/vol). After brief vortexing and centrifugation at 2,300g for 1 min, 20 µl of the aqueous phase was loaded onto 1% (wt/vol) agarose gels in TAE ([…]) gel. The gels were run at 85 V for 2 h followed by staining (15 min) in 1 µg ml^−1 ethidium bromide and destaining (5–10 min) in water. […] IC50 curves were generated in GraphPad Prism (v9.0.0) using the non-linear regression curve fit variable slope with four parameters and least squares regression. A. baumannii and P. aeruginosa gyrase supercoiling inhibition assays were set up in the same way as E. coli gyrase supercoiling assays. The enzyme was retrieved from Inspiralis Ltd. (PAG1001 and ABG1001) and tested in-house for activity with ×5 U enzyme used for each reaction.

P. aeruginosa ATCC 27853 = experiment: MIC by broth microdilution; assay type: cell-based; conditions: Pseudomonas aeruginosa, ATCC27853; read-out: MIC P. aeruginosa ATCC 27853
Procedure, shortened: (§1)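 Broth microdilution in CAMHB with twofold compound series; exponential-phase cultures (OD600 0.5) diluted 100-fold as inoculum, Keio strains pre-grown with 50 µg ml^−1 kanamycin. Overnight incubation at 37 °C, shaking 600 r.p.m. MIC is lowest concentration without visible growth, median of at least triplicates.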

[1] = system: S. aureus ATCC 29213 / ATCC BAA1717; experiment: MIC by broth microdilution; assay type: cell-based; conditions: Staphylococcus aureus
Procedure, shortened: as §1

[2] = Ciprofloxacin 0 nM + LEI-800 0.1 µM
[3] = Ciprofloxacin 0 nM + LEI-800 0.2 µM
[4] = Ciprofloxacin 0 nM + LEI-800 0.4 µM
[5] = Ciprofloxacin 0 nM + LEI-800 0.8 µM
[6] = Ciprofloxacin 0 nM + LEI-800 3.1 µM
[7] = Ciprofloxacin 0 nM + LEI-800 6.2 µM

For `O=S(=O)(NC[C@@H]1CC[C@H](c2ccc(-c3cccnc3)cc2)N1)c1cccc2cnccc12` [LEI-800], which “checkerboard plate reading, Average values” (E. coli; [2]) is on record?
The value was 0.7858.

What about the “checkerboard plate reading, replicate wells” value (E. coli; [2]) of the same compound?
The value was 0.7683 and 0.7669 and 0.8222.

And the “checkerboard plate reading, Average values” (E. coli; [3])?
The value was 0.7715.

What about the “checkerboard plate reading, replicate wells” value (E. coli; [3]) of the same compound?
The value was 0.7509 and 0.7706 and 0.7931.

And the “checkerboard plate reading, Average values” (E. coli; [4])?
The value was 0.7601.

What about the “checkerboard plate reading, replicate wells” value (E. coli; [4]) of the same compound?
The value was 0.7802 and 0.7598 and 0.7404.

What about the “checkerboard plate reading, Average values” (E. coli; [5]) of the same compound?
Its value is 0.5878.

And the “checkerboard plate reading, replicate wells” value (E. coli; [5])?
The value was 0.6002 and 0.5903 and 0.5728.

And the “checkerboard plate reading, Average values” (E. coli; [6])?
Its value is 0.291.

And the “checkerboard plate reading, replicate wells” value (E. coli; [6])?
The value was 0.2991 and 0.2865 and 0.2872.

What about the “checkerboard plate reading, Average values” (E. coli; [7]) of the same compound?
The value was 0.1602.

What about the “checkerboard plate reading, replicate wells” value (E. coli; [7]) of the same compound?
Its value is 0.157 and 0.1619 and 0.1616.

And the “checkerboard plate reading, Average values” (E. coli; Ciprofloxacin 0 nM + LEI-800 […])?
The value was 0.4748.

And the IC50 (E. coli DNA gyrase)?
The IC50 was 35 nM.

And the “fold more potent than CIP” value (E. coli DNA gyrase; supercoiling IC50 ratio)?
The value was greater than 25 fold.

And the MIC (P. aeruginosa ATCC 27853)?
Its MIC is greater than 50 µM.

And the MIC ([1]; read-out: MIC S. aureus ATCC 29213)?
Its MIC is greater than 50 µM.

What about the MIC ([1]; read-out: MIC S. aureus ATCC BAA1717) of the same compound?
Its MIC is greater than 50 µM.
